According to patent US11306091B2, “Process for producing fluorinated compounds using alcohol solvent having unsaturated hydrocarbon” (FUTURECHEM CO., LTD, priority 2019, dated 2022):

Assay: Comparison of solubility of precursor compounds according to the kind of reaction solvents (observation with the naked eye)
Format: physicochemical
Conditions: for Solubility in 2-methyl-3-butene-2-ol (the present invention), 60° C. / Solubility in 2-methyl-3-butene-2-ol (the present invention), room temp: 1.0 ml 2-methyl-3-butene-2-ol; for Solubility in 2-methyl-3-butene-2-ol (the present invention), 60° C. / Solubility in 2-methyl-3-butyne-2-ol (the present invention), 60° C. / Solubility in t-amyl alcohol (KR 10-0789847), 60° C.: shaking 1 minute at 60° C.; for Solubility in 2-methyl-3-butene-2-ol (the present invention), 60° C. / Solubility in 2-methyl-3-butene-2-ol (the present invention), room temp / Solubility in 2-methyl-3-butyne-2-ol (the present invention), 60° C. / Solubility in 2-methyl-3-butyne-2-ol (the present invention), room temp / Solubility in t-amyl alcohol (KR 10-0789847), 60° C. / Solubility in t-amyl alcohol (KR 10-0789847), room temp: naked eye; for Solubility in 2-methyl-3-butene-2-ol (the present invention), room temp / Solubility in 2-methyl-3-butyne-2-ol (the present invention), room temp / Solubility in t-amyl alcohol (KR 10-0789847), room temp: shaking 1 minute at room temperature; for Solubility in 2-methyl-3-butyne-2-ol (the present invention), 60° C. / Solubility in 2-methyl-3-butyne-2-ol (the present invention), room temp: 1.0 ml 2-methyl-3-butyne-2-ol; for Solubility in t-amyl alcohol (KR 10-0789847), 60° C. / Solubility in t-amyl alcohol (KR 10-0789847), room temp: 1.0 ml t-amyl alcohol; for State of solution dissolved at 60° C. after cooling to room temperature, 2-methyl-3-butene-2-ol / 2-methyl-3-butyne-2-ol: solvents of the present invention, dissolved by heating to 60° C., cooled to room temperature; for State of solution dissolved at 60° C. after cooling to room temperature, t-amyl alcohol: cooled to room temperature after the lapse of time
Procedure: Experiments for comparing the solubility in the 2-methyl-3-butene-2-ol solvent and 2-methyl-3-butyne-2-ol solvent according to the present invention, and the t-amyl alcohol solvent of the prior art (KE 10-0789847) were performed. Each of the precursors of FP-CIT, FDG, FLT, FMISO and FC119S in solid states was put in a vial, and 1.0 ml of each solvent was added thereto, followed by shaking at room temperature and 60° C. for 1 minutes, respectively, for dissolution.

| SMILES | Solubility in 2-methyl-3-butene-2-ol (the present invention), 60° C. | Solubility in 2-methyl-3-butene-2-ol (the present invention), room temp | Solubility in 2-methyl-3-butyne-2-ol (the present invention), 60° C. | Solubility in 2-methyl-3-butyne-2-ol (the present invention), room temp | Solubility in t-amyl alcohol (KR 10-0789847), 60° C. | Solubility in t-amyl alcohol (KR 10-0789847), room temp | State of solution dissolved at 60° C. after cooling to room temperature, 2-methyl-3-butene-2-ol / 2-methyl-3-butyne-2-ol | State of solution dissolved at 60° C. after cooling to room temperature, t-amyl alcohol |
| --- | --- | --- | --- | --- | --- | --- | --- | --- |
| O=[N+]([O-])c1nccn1CC(O)CF (centres unmarked) [FMISO] | Dissolved | Insoluble | Dissolved | Dissolved | Dissolved | Insoluble | not precipitated as solids | precipitated again as solids |
| CC(=O)OC[C@H]1O[C@@H](OC(C)=O)[C@@H](OS(=O)(=O)C(F)(F)F)[C@@H](OC(C)=O)[C@@H]1OC(C)=O [FDG, 1,3,4,6-tetra-O-acetyl-2-O-trifluoro-methanesulfonyl-beta-D-mannopyranose] | Dissolved | Dissolved | Dissolved | Dissolved | Dissolved | Insoluble |  | precipitated again as solids |
| CN(C(=O)OC(C)(C)C)c1ccc(-c2nc3ccc(OC[C@@H](COS(=O)(=O)c4ccc([N+](=O)[O-])cc4)OC4CCCCO4)cc3s2)cn1 (stereo partly drawn) [FC119S, (2S)-3-((2-(6-((tert-butoxycarbonyl) (methyl)amino)pyridin-3-yl)benzo[d]thiazol-6-yl)oxy)-2-((tetrahydro-2H-pyran-2-yl)oxy)propyl 4-nitrobenzenesulfonate] | Dissolved | Dissolved | Dissolved | Dissolved | Insoluble | Insoluble |  |  |
| Cc1cn([C@H]2C[C@H](OS(=O)(=O)c3ccc([N+](=O)[O-])cc3)[C@@H](COC(c3ccccc3)(c3ccccc3)c3ccccc3)O2)c(=O)n(C(=O)OC(C)(C)C)c1=O [FLT, 3-N-Boc-5′-O-trityl-3′-O-nosyl-thymidine] | Dissolved | Dissolved | Dissolved | Insoluble | Insoluble | Insoluble | not precipitated as solids |  |
| CCC(Oc1ccc2ccccc2c1)OS(C)(=O)=O (centres unmarked) [1-(naphthalene-2-yloxy)propyl methanesulfonate] | Dissolved | Dissolved |  |  |  |  |  |  |
| CS(=O)(=O)OCCCOc1ccc2ccccc2c1 [3-(naphthalene-2-yloxy)propyl methanesulfonate] | Dissolved | Dissolved |  |  |  |  |  |  |
